Counter-ions that a name gives are not always drawn.
What was measured:
[1] = system: Purkinje fiber of the right ventricular free wall; assay: Influence on myocardial action potential duration time (APD75), isolated right ventricular free wall; set-up: species or system dog (hybrid adult dog); conditions: Canis lupus familiaris, 20 min, 20 minutes' incubation; for APD75 prolongation (% change vs before administration) at 1 µg/mL: dose 1.0 μg/ml; for APD75 prolongation (% change vs before administration) at 3 µg/mL: dose 3.0 μg/ml; for APD75 prolongation (% change vs before administration) at 10 µg/mL: dose 10.0 μg/ml
Protocol: (1) Influence on myocardial action potential duration time (APD75): To a hybrid adult dog, 30 mg/kg of pentobarbital was administered through a vein, and after being anesthetized, the heart was removed. Afterward, the right ventricular free wall of the heart was cut and taken out in a Tyrode solution. […] In this isolated condition, myocardial action potential duration times (APD75) were measured before and after the administration of the respective compounds prepared in the above examples in Table 1 and d-sotalol as a control medicine, and APD75 (%) was calculated from the measured results in accordance with the formula: APD75 (%)=([…]75 before administration B: APD75 after administration Here, APD75 was measured as follows: […] This measured time was regarded as the myocardial action potential duration time (APD75). […] Incidentally, this test was carried out in accordance with a Sato et al's method [H. Sato, K. Hashimoto, Arzneimeittel Forschung, 34 (1), 3a, 376-380 (1984)].

[2] = system: ventricular muscle refractory period; assay: Influence on ventricular muscle refractory period (ERP); assay type: in vivo, dog (mongrel adult dog); conditions: Canis lupus familiaris, iv, i.v., anesthetized dog, change vs before administration, read-out: ERP (%; extensibility of refractory period)
Protocol: (2) Influence on ventricular muscle refractory period:
Refractory periods were measured in the following manner before and after each of the compounds and d-sotalol shown in Table 1 was separately administered to a vein or a duodenum, and ERP (%; extensibility of refractory period) was calculated from the measured values in accordance with the following formula: […]
W: Refractory period after administration
Y: Refractory period before administration
To a mongrel adult dog, 30 mg/kg of pentobarbital was administered intravenously, and after being anesthetized, a pair of silver-silver chloride electrodes separated by 3 mm was sewn on an opened right ventricule, and electrical stimulation was given at an interval of 400 msec at a duration time of 4 msec under a current twice as much as the threshold. Afterward, a small amount of alcohol was injected into a sinus artery in order to extinguish a pacemaker activity, and the ventricular refractory period (ERP) was measured under ventricule pacing.
That is, 1 train comprised 10 stimulations, and an interval between two of the trains was usually 400 msec. At the time of the refractory period measurement, however, the above interval was shortened every 10 smec, and the interval between the trains at the time when reaction to the first stimulation of the train disappeared was regarded as the refractory period.
In this case, the electrical stimulation was fed in accordance with a program by a heart stimulation device (Diamedical Co., Ltd.; DHM-226-3).

[3] = Toxicity test, mortality 24 hours after oral administration; conditions: mouse, in vivo, 300 mg/kg p.o., mice, 24 hours after administration, read-out: Mortality Rate (%)
Protocol: Each of the compounds prepared in the above-mentioned examples shown in Table 2 was administered into a mouse (ddy strain, male). In each case, the administration was effected by oral administration (p.o.) in a dose of 300 mg/kg.
A mortality rate (number of specimens: one group=2 to 4 mice) of the mice 24 hours after the administration was calculated, and the results are set forth in Table 2.

SMILES | APD75 prolongation (% change vs before administration) at 1 µg/mL [1] [%] | APD75 prolongation (% change vs before administration) at 3 µg/mL [1] [%] | APD75 prolongation (% change vs before administration) at 10 µg/mL [1] [%] | change in vivo at 0.1 mg/kg [2] [%] | change in vivo at 0.3 mg/kg [2] [%] | change in vivo at 1 mg/kg [2] [%] | change in vivo at 3 mg/kg [2] [%] | mortality at 24 h [3] [%] | APD75 prolongation (% change vs before administration) at 0.3 µg/mL ([1]; dose 0.3 μg/ml) [%]
CCOC(=O)c1cc(=O)c2ccc(OCCCN3CCN(c4cc(=O)n(C)c(=O)n4C)CC3)cc2o1 [Compound 50, 1,3-Dimethyl-6-(4-[3-(2-ethoxycarbonyl-4-oxo-4H-1-benzopyran-7-yl)oxypropyl]piperazine-1-yl)-2,4-(1H,3H)-pyrimidinedione oxalate] | 7 | 14 | 28 | 0 | 0 | 0 | 6.3 | – | –
Cc1cc(=O)c2c(OCCCN3CCN(c4cc(=O)n(C)c(=O)n4C)CC3)cccc2o1 [Compound 40, 1,3-Dimethyl-6-(4-[3-(2-methyl-4-oxo-4H-1-benzopyran-5-yl)oxypropyl-piperazine-1-yl)-2,4(1H,3H)-pyrimidinedione hydrochloride] | 18 | 25 | 29 | 6.9 | 10.3 | 13.9 | 17.4 | 0 | –
CC(C)NCC(O)c1ccc(NS(C)(=O)=O)cc1 (stereo not drawn) [d-sotalol, reference compound] | 3 | 7.4 | 15.8 | 1.7 | 6.7 | 8.7 | 15.5 | – | 0
Cn1c(N2CCN(CCCOc3cccc4oc(-c5ccncc5)cc(=O)c34)CC2)cc(=O)n(C)c1=O [Compound 25, 1,3-dimethyl-6-(4-[3-[2-(pyridine-4-yl)-4-oxo-4H-1-benzopyran-5-yl]oxypropyl]piperazine-1-yl)-2,4(1H,3H)-pyrimidinedione dihydrochloride] | 7 | 19 | 27 | 6.3 | 6.7 | 12.5 | – | 0 | –
Cn1c(N2CCN(CCCOc3cccc4oc(-c5ccccc5)cc(=O)c34)CC2)cc(=O)n(C)c1=O [Compound 39, 1,3-Dimethyl-6-(4-[3-(2-phenyl-4-oxo-4H-1-benzopyran-5-yl)oxypropyl]piperazine-1-yl)-2,4(1H,3H)-pyrimidinedione oxalate] | 7 | 20 | – | 7.1 | 14.3 | 14.3 | 14.3 | 0 | –
Cn1c(N2CCN(CCCOc3cccc4occc(=O)c34)CC2)cc(=O)n(C)c1=O [Compound 38, 1,3-Dimethyl-6-(4-[3-(4-oxo-4H-1-benzopyran-5-yl)oxypropyl]pyperazine-1-yl)-2,4(1H,3H)-pyrimidinedione hydrochloride] | 10 | 20 | 39 | 4.5 | 9.3 | 16 | 16 | 0 | –
Cc1coc2cccc(OCCCN3CCN(c4cc(=O)n(C)c(=O)n4C)CC3)c2c1=O [Compound 4, 1,3-dimethyl-6-(4-[3-(3-methyl-4-oxo-4H-1-benzopyran-5-yl)oxypropyl]piperazine-1-yl)-2,4(1H,3H)-pyrimidinedione hydrochloride] | 24 | 30 | – | 6.3 | 12.5 | 12.5 | 25 | 0 | –
Cn1c(N2CCN(CCCOc3cccc4c3C(=O)CC(c3ccccc3)O4)CC2)cc(=O)n(C)c1=O (stereo not drawn) [Compound 21, 1,3-dimethyl-6-(4-[3-(2-phenyl-4-oxo-2,3-dihydro-4H-1-benzopyran-5-yl)oxypropyl]piperazine-1-yl)-2,4(1H,3H)-pyrimidinedione oxalate] | 12 | 16 | 20 | 0 | 0 | 0 | 7.7 | 0 | –
Cn1c(N2CCN(CCCOc3ccc4c(=O)cc(-c5ccccc5)oc4c3)CC2)cc(=O)n(C)c1=O [Compound 48, 1,3-Dimethyl-6-(4-[3-(2-phenyl-4-oxo-4H-1-benzopyran-7-yl)oxypropyl]piperazine-1-yl)-2,4(1H,3H)-pyrimidinedione oxalate] | 7 | 12 | – | 0 | 0 | 6.9 | 20.4 | – | –
CCN(CCCOc1cccc2occ(C)c(=O)c12)CCNc1cc(=O)n(C)c(=O)n1C [Compound 14, 1,3-dimethyl-6-(2-[N-ethyl-N-[3-(3-methyl-4-oxo-4H-1-benzopyran-5-yl)oxypropyl]amino[ethylamino)-2,4(1H,3H)-pyrimidinedione oxalate] | 4 | 17 | 25 | 6.8 | 6.8 | 10.7 | 13.6 | 0 | –
Cc1oc2cccc(OCCCN3CCN(c4cc(=O)n(C)c(=O)n4C)CC3)c2c(=O)c1C [Compound 7, 1,3-dimethyl-6-(4-[3-(2,3-dimethyl-4-oxo-4H-1-benzopyran-5-yl)oxypropyl]piperazine-1-yl)-2,4(1H,3H)-pyrimidinedione oxalate] | 25 | 31 | – | 12 | 18 | 18 | 24 | 0 | –

From US5114941A, “Pyrimidinedione derivative compounds, method for preparing same, and antiarrythmic agents containing same” (Mitsui Toatsu Chemicals, Incorporated, priority 1989, dated 1992)
